Laboratory results reported in US20140329776A1, “Mitochondria-Targeted Antioxidants for Treatment of Age-Related Brain Disorders” (MITOTECH S.A., priority 2011, published 2014).

Assays:
Format in all cases: in vivo, rat
[1] = tested on: chronically alcoholised rats; assay: open field test of chronically alcoholised rats; conditions: vs Negative Control
Method: FIG. 9 is a graphic representation showing behavior parameters in the open field test of chronically alcoholised rats in % to intact control. (*−p<0.05; **—p<0.005 to negative control; #—p<0.05, ##—p<0.01, to intact control);
Male albino rats had free access to a 15% ethanol solution, as well as to food and water. After 6 months of alcoholisation, animals with average consumption more than 11 ml of 15% ethanol solution were divided into two even groups and subjected to the following treatment. The Negative Control group (n=16) (chronically alcoholised rats) were orally administered 1 ml per kg of isotonic 0.9% NaCl solution every two days for 20 days during alcohol deprivation. The SkQ1 group (n=17) (chronically alcoholised rats) were orally administered 1 ml per kg of SkQ1 250 nM solution every two days for 20 days during alcohol deprivation. The Intact Control group (n=10) (animals had no previous contact with ethanol) were orally administered 1 ml per kg of normal physiological solution every two days for 20 days.
After this course of drug administration, the effect on behavioral parameters was observed using the open field test, the elevated plus maze test, and the Porsolt forced swimming test.
In the open field test, treated animals had increased number of rearing ((p<0.05), number of entrance in central zone (p<0.01), movement time in central zone (p<0.05)) compared to the Negative Control group (FIG. 9. Therefore, SkQ1 increases exploratory activity during alcohol deprivation.

[2] = tested on: Wistar rats; assay: elevated plus maze, age-dependent behavioral defects; conditions: 14-month-old rats
Description: Rats of 3 months and 14 months old were investigated. An elevated plus maze with two open and two closed arms was used. Young animals placed in the maze center entered both types of arms with equal probability (FIGS. 2A and 2C). However, the 14-month-old rats preferred to enter the closed arms only (FIG. 2D), the probability of entering the open arms being extremely low. If, nevertheless, a 14-month-old rat entered an open arm, the animal immediately left this arm (FIG. 2B). […] This difference was also abolished by SkQ1 (Stefanova, et al., J. Alzheimer's Dis. 21:479-491 (2010)).

[3] = tested on: Wistar rats; assay: acoustical startle reflex, pre-impulse inhibition in offspring of rats with hyperhomocysteinemia; conditions: pups day 45
Description: FIG. 13 is a graphic representation showing the inhibition of startle reaction to loud stimulus by pre-impulse in rats, where the histogram bars indicate the mean level of startle reaction after pre-stimulus as % to that of control group of rats (without hyperhomocisteinemia). l-m corresponds to group of rats treated with high L-methionine diet, and skq+lm corresponds to group of rats treated with high L-methionine diet and SkQ1.
FIG. 14 is a graphic representation showing habituation of rats to double acoustic stimulus in normal conditions, under hyperhomocisteinemia and under hyperhomocisteinemia treated with SkQ1, where motor reaction to the double stimulus and P values for different pairs of groups is indicated.
An experiment was performed on 161 female Wistar rats (n=12) with body weight 200 g-250 g and their offspring (n=149) from 0 to 1.5 months old. All animals were SPF-category and were housed under the standard conditions according to GLP-regulations (controlled microbiological conditions, light-dark cycle 12/12 hours, ventilation rate 10-12 V/h, room temperature 22+2° C., with maximum change 1° C. per day, humidity 30-70%). Rats were housed in individual cages with free access to food and water.
Each female rat was held with 3 male rats for one night. First day of the pregnancy was considered to be the day when spermatozoon were found in a vaginal smear. […]

[4] = tested on: Wistar rats; assay: elevated plus maze test 24 hours after ethanol narcosis; conditions: 250 nM SkQ1 group; p<0.05
Method: FIG. 8 is a graphic representation showing behavior parameters in the elevated plus maze test 24 hours after ethanol narcosis in % to negative control. (*−p<0.05 to intact control);
In these experiments, 6 groups of experimental animals (Wistar rats) were used. (1) The Intact Control group (n=12), had no ethanol narcosis, and were orally administered a normal isotonic 0.9% NaCl solution; (2) the Negative Control group (n=12) was orally administered a normal physiological solution after ethanol narcosis; (3) The SkQ1 50 nM control group (n=12) was orally administered SkQ1 in a concentration 50 nM after ethanol narcosis; (4) The SkQ1 250 nM control group (n=12) was orally administered SkQ1 in a concentration of 250 nM after ethanol narcosis; (5) The SkQ1 1250 nM control group (n=12) was orally administered SkQ1 in a concentration of 1250 nM after ethanol narcosis; (6) the SkQ1 1250 nM intr control group (n=13) was intraperitoneally administered SkQ1 in a concentration of 1250 nM after ethanol narcosis.
Twenty-four hours after ethanol narcosis, elevated plus maze (Treit et al. (1993) Pharmacol. Biochem. Behav. 44:463-9) and Porsolt forced swimming (Petit-Demouliere et al. (2005) Psychopharmacol. (Berl). 177: 245-55) tests were performed. […]

[5] = 250 nmol/kg daily in food for 10 weeks

## CC1=C(C)C(=O)C(CCCCCCCCCC[P+](c2ccccc2)(c2ccccc2)c2ccccc2)=CC1=O [SkQ1, plastoquinonyl decyltriphenyl-phosphonium]
[1]; 1 ml per kg SkQ1 250 nM solution orally every two days for 20 days during alcohol deprivation, p<0.05
  number of rearing: increased
[1]; SkQ1 250 nM solution orally every two days for 20 days, p<0.01
  number of entrance in central zone: increased
[1]; SkQ1 250 nM solution orally every two days for 20 days, p<0.05
  movement time in central zone: increased
[2]; 250 nmol/kg body weight daily in food for 10 weeks
  age effect in elevated plus maze: completely reversed
[2]; [5]
  probability of entering an open arm: as high as for young rats
  time spent in open arm: almost as long as for the young rodents
[3]; SkQ1 250 nM/kg orally to mother rats once per 2 d during lactation
  parameters of pre-impulse inhibition of the progeny: normalized
[3]; SkQ1-treated group
  non stable and very high reflex reaction on sound stimuli (effect of hyperhomocisteinemia): significantly reduced
[4]
  looking out from closed arms: increased
  number of risk behavior: increased
